Measured values reported in patent publication US20130219529A1, “PROBE FOR A HAIR CELL, AND LABELLING METHOD FOR A HAIR CELL USING THE PROBE FOR A HAIR CELL” (CANON KABUSHIKI KAISHA, priority 2008, published 2013).

Legend:
[1] = test system: hair cell (neuromast) of Zebrafish; test: Staining of hair cell (neuromast) of Zebrafish juveniles with probe, fluorescence stereomicroscope image visually evaluated; assay type: in vivo; details: dye concentration 250 μg/mL, 1 hour, Zebrafish juveniles Day 7 after fertilization
[2] = Excitation and fluorescence emission wavelength measured with fluorescence spectrophotometer; assay type: physicochemical; details: aqueous solution, 10 mg/mL DMSO solution diluted 500-fold with purified water
[3] = test system: neuromast (hair cell) of Zebrafish; test: Staining intensity of neuromast at different concentrations of staining agent (fluorescence intensity per unit intake time); assay type: in vivo; details: 10, 30 and 100 ng/mL staining solutions, intensity/msec
Experimental: The compounds (43), (54), and (65) were selected as probes for a hair cell, and compared with FM1-43. Three kinds of staining solutions containing those staining agents were prepared at concentrations of 10 ng/mL, 30 ng/mL, and 100 ng/mL. Juveniles of (embryos on Day 7 after fertilization) of Zebrafish were stained in the same manner as that in Example 1. When a fluorescence image is acquired with a fluorescence stereomicroscope, the fluorescence intensity per unit intake time (intensity/msec) was calculated by changing an intake time (exposure time) and dividing the fluorescence intensity (Relative Fluorescence Unit, RFU) of a neuromast of the obtained fluorescence image by the intake time.

[4] = test system: hair cell (neuromast) of Zebrafish; test: Staining of hair cell (neuromast) of Zebrafish juveniles with probe, fluorescence stereomicroscope image visually evaluated; assay type: in vivo; parameters: Fluorescence intensity: key to the marks not given beside the values; details: dye concentration 1 μg/mL, 1 hour, Zebrafish juveniles Day 7 after fertilization
Experimental: A staining compound (1) was dissolved in DMSO to prepare a stock solution at a concentration of 1 mg/mL. The stock solution was diluted with distilled water to prepare a hair cell staining solution 1 having a dye concentration of 1 μg/mL. Further, Egg Water was prepared by dissolving artificial seawater SEALIFE (manufactured by Marinetech Co., Ltd.) in distilled water at a concentration of 60 mg/L. Five juveniles (embryos on Day 7 after fertilization) of Zebrafish were placed into any one of wells of a 24-well multiwell plate together with feeding water. The feeding water was discharged and 1 mL of the hair cell staining solution 1 was added. After the whole had been left to stand for 1 hour, the hair cell staining solution 1 in the well was discharged and replaced by 1 mL of fresh Egg Water. In addition, such an operation that Egg Water was discharged and replaced by 1 mL of fresh Egg Water was repeated twice. One of the juveniles was taken out from the well onto a dish, the motion of the juvenile was restricted by addition of methylcellulose, and a fluorescence image was captured with a fluorescence stereomicroscope. MZ16FA manufactured by Leica Microsystems K.K. was used as a stereoscopic microscope.
An image pickup unit (a digital camera DP72 for a microscope manufactured by Olympus Corporation) of a fluorescence stereomicroscope was remodeled by removing an IR cut filter so as to capture a fluorescence image in a near-infrared wavelength region.

[5] = test system: hair cell of Zebrafish; details: 5 μM chemical substance, 24 hours exposure, Zebrafish Day 7 after fertilization, stained with staining compound 54
Experimental: Zebrafish after exposure was washed with distilled water. The same operation as that in Example 1 was performed except that the staining compound (1) used in Example 1 was changed to a staining compound (54).

[6] = test system: juvenile neuromast (hair cell) of Zebrafish; test: Change in staining intensity of neuromast due to morpholino knockdown of target genes (SLC25A12, TRPC2); assay type: in vivo; details: for Increase of staining properties by knockdown of SLC25A12 and TRPC2 genes: each of SLC25A12 and TRPC2 knockdown; for Ratio of staining intensity (KD/control): juveniles Day 7
Experimental: In order to knockdown a specific gene, a mixed solution containing a morpholino antisense oligonucleotide (MO) was prepared. MO was synthesized by using GeneTools, LLC (Philomath, Oreg.). A morpholino antisense oligonucleotide (atgMO) designed so that the translation from a start codon to a protein would be inhibited was dissolved in distilled water to prepare a MO mixed solution having the following composition.
A fertilized embryo within 1 hour after fertilization (before a second cleavage period) of Zebrafish was microinjected with the MO mixed solution. A capillary made of glass (inner diameter: 0.6 mm) having a sharp extremity obtained by extending and cutting a glass tube with a PC-10 puller (manufactured by Narishige Co., Ltd.) and grinding the cross section with a EG-400 grinder (manufactured by Narishige Co., Ltd.) was used for the microinjection. Feeding water and the fertilized embryo were placed into a 10-cm dish in which 1% agarose had been bedded, and the microinjection was performed under a stereoscopic microscope. During injection, one of a manual injector IM-9A (manufactured by Narishige Co., Ltd.) and an electrical microinjector IM-30 (manufactured by Narishige Co., Ltd.) was connected to the capillary made of glass, to thereby perform infusion with pressure. The infusion amount of MO was set to 1 to 10 ng per fertilized embryo.
Because the MO mixed solution is supplemented with a dye (0.005% phenol red), the success or failure of the infusion of the MO mixed solution may be confirmed with the naked eye. Further, because the MO mixed solution is supplemented with a fluorescent protein expression vector (EGFP), on Day 3 after infusion, the success or failure of the microinjection can be confirmed after the fertilized embryo has hatched (a sample in which a signal derived from the fluorescent protein was observed also retains MO in Zebrafish).
Juveniles (embryos on Day 7 after fertilization) of Zebrafish were stained in the same manner as that in Example 1, and a change in staining condition of the hair cell was measured.
The compound (54) was selected as the probe for a hair cell and compared with FM1-43. Further, SLC25A12 and TRPC2 were selected as target genes. The staining intensity of a juvenile neuromast having unknockdown genes was used as a control, and compared with the staining intensity of a juvenile neuromast in which each of the target genes has been knockdown by representing a fluorescence image obtained with a stereoscopic microscope in numerical values.

SMILES	Excitation wavelength λex [2]	Fluorescence emission wavelength λem [2]	Fluorescence intensity [4]	other results
CC[n+]1ccccc1C=Cc1ccc(N(C)C)cc1.[I-] [DASPEI, 2-(4-(dimethylamino)styryl)-N-ethylpyridinium iodide, reference compound]	461 nm	589 nm	–	Fluorescence intensity [1]: +
CC1(C)C(/C=C/C=C/C=C/C=C2\N(CCCCS(=O)(=O)O)c3ccc4ccccc4c3C2(C)C)=[N+](CCCCS(=O)(=O)[O-])c2ccc3ccccc3c21 [ICG, indocyanine green, reference compound]	784 nm	811 nm	–	Fluorescence intensity [1]: No stained; Staining pattern [1]: No stained
CN1/C(=C\C=C\C2=[N+](C)c3ccccc3C2(C)C)C(C)(C)c2ccccc21 [Staining compound 43]	–	–	–	Staining intensity of the hair cell compared with FM1-43 (FIG. 4) [3]: higher
CCN1/C(=C\C=C\c2sc3ccccc3[n+]2CC)Sc2ccccc21 [Staining compound 65]	–	–	–	Staining intensity of the hair cell compared with FM1-43 (FIG. 4) [3]: higher
CC/N=c1\cc2oc3cc(NCC)c(C)cc3c(-c3ccccc3C(=O)OCC)c-2cc1C [compound 54]	528 nm	550 nm	+++	–
O=C(O)C[n+]1c(/C=C/c2ccc3c(c2)C2CCCC2N3c2ccc(C=C(c3ccccc3)c3ccccc3)cc2)oc2ccccc21 (centres unmarked) [compound 1]	570 nm	657 nm	+++	–
NCCS(=O)(=O)O [Taurine, taurine]	–	–	–	Change in staining intensity [5]: No change
CCCCN(CCCC)c1ccc(/C=C/c2cc[n+](CCC[N+](CC)(CC)CC)cc2)cc1.[Br-].[Br-] [FM1-43, reference compound]	503 nm	627 nm	+++	Increase of staining properties by knockdown of SLC25A12 and TRPC2 genes [6]: about 30%; Ratio of staining intensity (KD/control) ([6]; target gene SLC25A12 knockdown): 1.36; Ratio of staining intensity (KD/control) ([6]; target gene TRPC2 knockdown): 1.35
CC/N=c1\cc2oc3cc(NCC)c(C)cc3c(-c3ccccc3C(=O)OCC)c-2cc1C [Staining compound 54]	–	–	–	Staining intensity of the hair cell compared with FM1-43 (FIG. 4) [3]: higher; Increase of staining properties by knockdown of SLC25A12 and TRPC2 genes [6]: about 2 fold; Ratio of staining intensity (KD/control) ([6]; target gene SLC25A12 knockdown): 2.06; Ratio of staining intensity (KD/control) ([6]; target gene TRPC2 knockdown): 2.18

More lines, main results first:

Excitation wavelength λex [2]	Fluorescence emission wavelength λem [2]	SMILES	Fluorescence intensity [4]	other results
480 nm	509 nm	O=S(=O)(O)c1ccccc1-c1c2cc/c(=N/CCO)cc-2oc2cc(NCCO)ccc12 [compound 58]	+++	–
490 nm	560 nm	CCCC/N=c1/ccc2c(-c3ccccc3S(=O)(=O)O)c3ccc(NCCCC)cc3oc-2c1 [compound 63]	+++	–
429 nm	503 nm	CC(=C\c1oc2ccccc2[n+]1CCC(=O)O)/C=C1/Oc2ccccc2N1CCC(=O)O [compound 28]	+++	–
560 nm	628 nm	CCN1/C(=C\C(C)=C\c2sc3ccccc3[n+]2CC)Sc2ccccc21 [compound 45]	+++	–
473 nm	564 nm	CN1/C(=C\C=C\C2=[N+](C)c3ccccc3C2(C)C)C(C)(C)c2ccccc21 [compound 43]	+++	–
566 nm	611 nm	O=C(O)C[n+]1c(/C=C/c2ccc3c(c2)C2CCCC2N3Cc2ccccc2)sc2ccccc21 (centres unmarked) [compound 15]	+++	–
509 nm	578 nm	CCC[N+](CCC)=c1ccc2c(-c3ccccc3S(=O)(=O)O)c3ccc(Nc4c(C)cccc4C)cc3oc-2c1.[Na+] [compound 60]	+++	–
560 nm	677 nm	COc1ccc(N2c3ccc(/C=C/c4sc5ccccc5[n+]4CC(=O)O)cc3C3CCCC32)cc1 (centres unmarked) [compound 8]	+++	–
571 nm	620 nm	CCN1C=C/C(=C/C=C/c2oc3ccccc3[n+]2CC)c2ccccc21 [compound 50]	+++	–
